Measured values: paper PMC6941404, “Pigmentosins from Gibellula sp. as antibiofilm agents and a new glycosylated asperfuran from Cordyceps javanica” (Beilstein Journal of Organic Chemistry, 2019)
Converted amounts (≈) assume the structure as drawn. Where two headings read alike, the source gives them in different places.

Tests used:
S. aureus DSM1104 = assay: Bacteriostatic and bactericidal activity assay (Bioscreen growth curves, MBC on agar); type: cell-based, Staphylococcus aureus; settings: for MIC90: read-out: Bacteriostatic activity MIC90; for Growth of S. aureus cells relative to growth control: at the lowest concentration where the biofilm formation was interrupted
Procedure: The assay was performed with each concentration tested in quadruplicates. The MIC was considered as the lowest concentration where the percentage of inhibition was higher than or equal to 90%. The minimum bactericidal concentration (MBC) of isolated compounds was also determined by transferring an aliquot of 2 µL from all concentrations tested onto nutrient agar (NA) plates, which were then incubated at 30 °C for 24 h. The MBC endpoint was defined as the lowest concentration of the compounds that killed microorganisms, where no visible growth of the microorganism tested was observed on the agar plates. The experimental procedures and the results are given in detail in Supporting Information File 1. […]
Bacteriostatic and bactericidal activity assay […]
aeruginosa PA14 were further evaluated for their bacteriostatic and bactericidal activit ies. The assay was performed in the Bioscreen 100 -well Honeycomb plate according to the protocol described by Yuyama et al. 13 where the MIC values were determined. The bacterial inoculum was prepared by growing S. aureus DSM1104 in Luria -Bertani broth (LB) for 24 h at 30 °C and then adjusting to 0.5 McFarland turbidity standard. The 0.5 McFarland bacterial suspension (296.25 µL) was transferred to the well containing 3.75 µL of each compound (20 mg/mL) and was subsequently two -fold diluted to give 8 concentrations ranging from 250 –1.95 µg/mL. Since compound 2 and the remaining five compounds could completely be dissolved in MeOH and dimethyl sulfoxide (DMSO), respectively, MeOH and DMSO were used as the solvent controls. The assay was performed with each concentration tested in quadruplicate. The bacterial growth was monitored on the Bioscreen -C automated growth curve analysis system (Oy Growth Curves AB Ltd, Helsinki, Finland) for 24 h with the optical density at 600 nm measured at 15 -min intervals. The MIC of each compound tested was read at 24 h of incubation and was considered as the lowest concentration where the percentage of inhibition was higher than or equal to 90%. Herein, the minimum bactericidal concentration (MBC) of isolated compounds was also determined by transferring an aliquot of 2 µL from all concentration tested onto Nutrient Agar (NA) plates which were then incubate d at 30 °C for 24 h. The MBC endpoint was defined as the lowest concentration of the compounds that kill microorganisms where no visible growth of the microorganism tested was observed on the agar plates.

Bacillus subtilis DSM10 = assay: Antimicrobial activity, broth microdilution MIC; type: cell-based; settings: for MIC: read-out: Antimicrobial activity (MIC) BS
Procedure: To evaluate the biological effects of compounds 1–6, various assays were carried out. The antimicrobial activity of the isolated compounds against Bacillus subtilis DSM10, Escherichia coli DSM498, Candida tenuis MUCL29892, and Mucor plumbeus MUCL49355 was determined as described by Kuephadungphan and co-workers. The nematicidal activity against Caenorhabditis elegans was investigated using a microtiter plate assay according to Helaly and co-workers, while the cytotoxicity was tested against murine fibroblast (L929) and human HeLa (KB3.1) cell lines according to Chepkirui and co-workers.
Biological activity screening of compounds 1–6
Antimicrobial activity assay
The minimum inhibitory concentration (MIC) of compounds 1–6 was determined using the broth microdilution method according to Kuephadungphan et al.4 against B. subtilis DSM10, E. coli DSM498, C. tenuis MUCL29892 and M. plumbeus MUCL49355. Stock suspension of each bacterium and yeast (100 μL) was transferred to 100 mL of EBS medium and YM medium, respectively.
Suspensions of B. subtilis and C. tenuis were incubated on a rotary shaker at 30 °C for 18–24 h while E. coli was grown at 37 °C for 24 h. After incubation, the suspension was adjusted to a concentration of 6.7 × 10^5 cells/mL using a hemacytometer. The spore suspension of M. plumbeus was prepared at a concentration of 6.7 × 10^5 conidia/mL using YM medium. The determination of MIC was performed in a 96-well microtiter plate. The compounds dissolved in methanol at a concentration of 4.5 mg/mL (20 μL) were transferred to the first row of the plate. Standard antibiotics including ciprofloxacin (bacteria) and nystatin (yeast and fungus), and methanol were used as positive and negative controls, respectively. Inoculum suspension (280 μL) was added to the first row containing compounds and 150 μL were added to the rest. The solutions were then serially 2-fold diluted to 8 concentrations ranging from 2.34–300 μg/mL. Plates were incubated at 30 °C on a microplate-vibrating shaker for 24 h for bacteria and 48 h for yeast and filamentous fungus. […]
The assay was kindly conducted by Wera Collisi, Department of Microbial Drugs, Helmholtz Centre of Infection Research, Germany. The tested cell lines were cultured in EBM -2 (Lonza) sup plemented with 10% fetal bovine serum (Gibco) under 10% CO2 at 37 °C. A 60 µL of serial dilutions from an initial stock (1 mg/mL) of the test compounds in MeOH was added to 120 µL aliquots of a cell suspension (50,000 cells/mL) in 96-well microplates.
After incubation for five days, 20 µL of MTT in phosphate buffered saline (PBS) were added to give a final concentration of 0.5 mg/mL. The plates were further incubated for two hours. The precipitate

[1] = S. aureus, minimum bactericidal concentration, no visible growth on NA plates, 30 °C, 24 h
[2] = Staphylococcus aureus, DSM1104, 24 h
[3] = Bacillus subtilis DSM10, 24 h, range 2.34–300 μg/mL, NA = No activity

| SMILES | Cell growth (%) at 1.9 µg/ml (S. aureus DSM1104; S. aureus, 24 h) | Cell growth (%) at 3.9 µg/ml (S. aureus DSM1104; S. aureus, 24 h) | Cell growth (%) at 7.8 µg/ml (S. aureus DSM1104; S. aureus, 24 h) | Cell growth (%) at 15.6 µg/ml (S. aureus DSM1104; S. aureus, 24 h) | Cell growth (%) at 31.3 µg/ml (S. aureus DSM1104; S. aureus, 24 h) | Cell growth (%) at 62.5 µg/ml (S. aureus DSM1104; S. aureus, 24 h) | Cell growth (%) at 125 µg/ml (S. aureus DSM1104; S. aureus, 24 h) | Cell growth (%) at 250 µg/ml (S. aureus DSM1104; S. aureus, 24 h) | MBC (S. aureus DSM1104; [1]) | MBC (S. aureus DSM1104; [2]) | MIC90 (S. aureus DSM1104; [2]) | Growth of S. aureus cells relative to growth control (S. aureus DSM1104) | Antimicrobial activity (MIC) BS (Bacillus subtilis DSM10; [3]) | MIC (Bacillus subtilis DSM10; Bacillus subtilis, DSM10, 24 h) | MIC90 (S. aureus DSM1104; Staphylococcus aureus, DSM1104, S. aureus, lowest concentration with inhibition >= 90% at 24 h) | MBC (S. aureus DSM1104; Staphylococcus aureus, DSM1104, S. aureus, minimum bactericidal concentration, no visible growth on NA plates, 30 °C, 24 h, read-out: MBC) | MIC (Bacillus subtilis DSM10; [3]) |
| --- | --- | --- | --- | --- | --- | --- | --- | --- | --- | --- | --- | --- | --- | --- | --- | --- | --- |
| COc1cc(O)c2c(O)c3c(cc2c1-c1c(OC)cc(O)c2c(O)c4c(cc12)CC(C)OC4=O)CC(C)OC3=O (stereo not shown) [Pigmentosin A (1), pigmentosin A] | 89.5% | 53.2% | 32.8% | 30.3% | 25.4% | 22.6% | 23.8% | 32.5% | higher than 250 µg/ml | > 250 µg/mL | > 250 µg/mL | more than 80% | 12.5 µg/mL | 12.5 µg/mL (≈ 22.9 µM) | – | – | – |
| COc1cc(O)c2c(O)c3c(cc2c1-c1c(OC)cc(O)c2c(O)c4c(cc12)CC(CC(C)O)OC4=O)CC(C)OC3=O (stereo not shown) [Pigmentosin B (2), pigmentosin B] | 100% | 94.4% | 84.9% | 54.3% | 40.9% | 42.8% | 29.9% | 26.8% | higher than 250 µg/ml | – | – | more than 80% | 100 µg/mL | – | > 250 µg/mL | > 250 µg/mL | 100 µg/mL (≈ 169 µM) |
